Laboratory results published in patent US20230022400A1, “IMMUNOMODULATORS” (Bristol-Myers Squibb Company, priority 2019, published 2023).
Where a SMILES comes first, the peptide text is derived from it. Bridges are numbered along the chain shown (N, C = ends). [ ]: non-standard residue; d: D form. The star is where a group is joined. Trp(1-CH2COOH) = N[C@@H](Cc1cn(CC(=O)O)c2ccccc12)C(=O)O; X19 = c1ccc(N2CCN(c3ncnc(*)n3)CC2)cc1; Hyp = O=C(O)[C@@H]1C[C@@H](O)CN1; X20 = Cc1ccc2[nH]c3c(*)ncnc3c2c1; X8 = Cn1cnc2c(Cl)nc3sc(*)nc3c21; X10 = c1ccc2c(c1)sc1ncnc(*)c12; X13 = Clc1ccc2oc3c(*)ncnc3c2c1; X2 = CSc1nc(*)c2sc3ccccc3c2n1; NMeNle = CCCC[C@H](NC)C(=O)O; X18 = c1ccc(-c2ccnc(*)n2)cc1; NMeA = CN[C@@H](C)C(=O)O; Dab = NCC[C@H](N)C(=O)O; Dap = NC[C@H](N)C(=O)O; X6 = c1ccc2nc(*)cnc2c1; X1 = c1ccc2sc(*)nc2c1; X11 = COc1ccnc(*)n1; X3 = N#Cc1ccc(*)nc1

Target: T1, PD-1/PD-L1 interaction (PD-1-Ig / PD-L1-His) (Homo sapiens, UniProt Q9NZQ7)
T1 construct: TVMV protease site (linker) (C); made in house; host or cells: HEK293T cells
Test: PD-1/PD-L1 Homogenous Time-Resolved Fluorescence (HTRF) binding assay
Details: PD-L1-His 10 nM final, PD-1-Ig 20 nM final; inhibitors pre-incubated with PD-L1-His for 15 m
From the text: The ability of the compounds of formula (I) to bind to PD-L1 was investigated using a PD-1/PD-L1 Homogenous Time-Resolved Fluorescence (HTRF) binding assay.
The interaction of PD-1 and PD-L1 can be assessed using soluble, purified preparations of the extracellular domains of the two proteins. The PD-1 and PD-L1 protein extracellular domains were expressed as fusion proteins with detection tags, for PD-1, the tag was the Fc portion of Immunoglobulin (PD-1-Ig) and for PD-L1 it was the 6 histidine motif (PD-L1-His). All binding studies were performed in an HTRF assay buffer consisting of dPBS supplemented with 0.1% […] bovine serum albumin and 0.05% (v/v) Tween-20. For the h/PD-L1-His binding assay, inhibitors were pre-incubated with PD-L1-His (10 nM final) for 15 m in 4 μl of assay buffer, followed by addition of PD-1-Ig (20 nM final) in 1 μl of assay buffer and further incubation for 15 m. HTRF detection was achieved using europium crypate-labeled anti-Ig (1 nM final) and allophycocyanin (APC) labeled anti-His (20 nM final). Antibodies were diluted in HTRF detection buffer and 5 μl was dispensed on top of the binding reaction. The reaction mixture was allowed to equilibrate for 30 minutes and the resulting signal (665 nm/620 nm ratio) was obtained using an EnVision fluorometer. Additional binding assays were established between the human proteins PD-1-Ig/PD-L2-His (20 & 5 nM, respectively) and CD80-His/PD-L1-Ig (100 & 10 nM, respectively).
Recombinant Proteins: Human PD-1 (25-167) with a C-terminal human Fc domain of immunoglobulin G (Ig) epitope tag [hPD-1 (25-167)-3S-IG] and human PD-L1 (18-239) with a C-terminal His epitope tag [hPD-L1(18-239)-TVMV-His] were expressed in HEK293T cells and purified sequentially by ProteinA affinity chromatography and size exclusion chromatography. Human PD-L2-His and CD80-His was obtained through commercial sources.
Table 1 lists the IC50 values for representative examples of this disclosure measured in the PD-1/PD-L1 Homogenous Time-Resolved Fluorescence (HTRF) binding assay.

T1 sequence (Q9NZQ7 18-239): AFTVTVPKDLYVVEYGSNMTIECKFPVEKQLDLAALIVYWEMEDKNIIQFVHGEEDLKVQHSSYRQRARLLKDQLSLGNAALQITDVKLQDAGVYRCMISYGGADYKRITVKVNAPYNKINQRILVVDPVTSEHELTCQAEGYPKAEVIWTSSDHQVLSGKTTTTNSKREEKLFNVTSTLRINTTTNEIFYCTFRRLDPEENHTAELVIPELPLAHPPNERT

Row | SMILES | IC50 [nM]
1 | CCCC[C@H]1C(=O)N(C)[C@@H](CCCC)C(=O)N[C@@H](CC(C)C)C(=O)N[C@H](C(=O)NCC(N)=O)CSCC(=O)N[C@@H](Cc2ccc(O)cc2)C(=O)N(C)[C@@H](C)C(=O)N[C@@H](CC(N)=O)C(=O)N2CCC[C@H]2C(=O)N[C@@H](CNc2nc(SC)nc3c2sc2ccccc23)C(=O)N[C@@H](CC(C)C)C(=O)N2C[C@H](O)C[C@H]2C(=O)N[C@@H](Cc2c[nH]c3ccccc23)C(=O)N[C@@H](CCNc2nc(SC)nc3c2sc2ccccc23)C(=O)N[C@@H](Cc2cn(CC(=O)O)c3ccccc23)C(=O)N1C [Compound 21009] ({CH2CO}-Y[NMeA]NP[Dap](X2)L[Hyp]W[Dab](X2)[Trp(1-CH2COOH)][NMeNle][NMeNle]LCG-NH2; thioether N-14) | 136
2 | CCCC[C@H]1C(=O)N(C)[C@@H](CCCC)C(=O)N[C@@H](CC(C)C)C(=O)N[C@H](C(=O)NCC(N)=O)CSCC(=O)N[C@@H](Cc2ccc(O)cc2)C(=O)N(C)[C@@H](C)C(=O)N[C@@H](CC(N)=O)C(=O)N2CCC[C@H]2C(=O)N[C@@H](CNc2cnc3ccccc3n2)C(=O)N[C@@H](CC(C)C)C(=O)N2C[C@H](O)C[C@H]2C(=O)N[C@@H](Cc2c[nH]c3ccccc23)C(=O)N[C@@H](CCN)C(=O)N[C@@H](Cc2cn(CC(=O)O)c3ccccc23)C(=O)N1C [Compound 11003] ({CH2CO}-Y[NMeA]NP[Dap](X6)L[Hyp]W[Dab][Trp(1-CH2COOH)][NMeNle][NMeNle]LCG-NH2; thioether N-14) | 7.1
3 | CCCC[C@H]1C(=O)N(C)[C@@H](CCCC)C(=O)N[C@@H](CC(C)C)C(=O)N[C@H](C(=O)NCC(N)=O)CSCC(=O)N[C@@H](Cc2ccc(O)cc2)C(=O)N(C)[C@@H](C)C(=O)N[C@@H](CC(N)=O)C(=O)N2CCC[C@H]2C(=O)N[C@@H](CNc2nccc(OC)n2)C(=O)N[C@@H](CC(C)C)C(=O)N2C[C@H](O)C[C@H]2C(=O)N[C@@H](Cc2c[nH]c3ccccc23)C(=O)N[C@@H](CCN)C(=O)N[C@@H](Cc2cn(CC(=O)O)c3ccccc23)C(=O)N1C [Compound 1001] ({CH2CO}-Y[NMeA]NP[Dap](X11)L[Hyp]W[Dab][Trp(1-CH2COOH)][NMeNle][NMeNle]LCG-NH2; thioether N-14) | 5.4
4 | CCCC[C@H]1C(=O)N(C)[C@@H](CCCC)C(=O)N[C@@H](CC(C)C)C(=O)N[C@H](C(=O)NCC(N)=O)CSCC(=O)N[C@@H](Cc2ccc(O)cc2)C(=O)N(C)[C@@H](C)C(=O)N[C@@H](CC(N)=O)C(=O)N2CCC[C@H]2C(=O)N[C@@H](CNc2ncnc3c2[nH]c2ccc(C)cc23)C(=O)N[C@@H](CC(C)C)C(=O)N2C[C@H](O)C[C@H]2C(=O)N[C@@H](Cc2c[nH]c3ccccc23)C(=O)N[C@@H](CCN)C(=O)N[C@@H](Cc2cn(CC(=O)O)c3ccccc23)C(=O)N1C [Compound 21003] ({CH2CO}-Y[NMeA]NP[Dap](X20)L[Hyp]W[Dab][Trp(1-CH2COOH)][NMeNle][NMeNle]LCG-NH2; thioether N-14) | 13
5 | CCCC[C@H]1C(=O)N(C)[C@@H](CCCC)C(=O)N[C@@H](CC(C)C)C(=O)N[C@H](C(=O)NCC(N)=O)CSCC(=O)N[C@@H](Cc2ccc(O)cc2)C(=O)N(C)[C@@H](C)C(=O)N[C@@H](CC(N)=O)C(=O)N2CCC[C@H]2C(=O)N[C@@H](CNc2nc3c(nc(Cl)c4ncn(C)c43)s2)C(=O)N[C@@H](CC(C)C)C(=O)N2C[C@H](O)C[C@H]2C(=O)N[C@@H](Cc2c[nH]c3ccccc23)C(=O)N[C@@H](CCN)C(=O)N[C@@H](Cc2cn(CC(=O)O)c3ccccc23)C(=O)N1C [Compound 21001] ({CH2CO}-Y[NMeA]NP[Dap](X8)L[Hyp]W[Dab][Trp(1-CH2COOH)][NMeNle][NMeNle]LCG-NH2; thioether N-14) | 2.4
6 | CCCC[C@H]1C(=O)N(C)[C@@H](CCCC)C(=O)N[C@@H](CC(C)C)C(=O)N[C@H](C(=O)NCC(N)=O)CSCC(=O)N[C@@H](Cc2ccc(O)cc2)C(=O)N(C)[C@@H](C)C(=O)N[C@@H](CC(N)=O)C(=O)N2CCC[C@H]2C(=O)N[C@@H](CNc2nc3ccccc3s2)C(=O)N[C@@H](CC(C)C)C(=O)N2C[C@H](O)C[C@H]2C(=O)N[C@@H](Cc2c[nH]c3ccccc23)C(=O)N[C@@H](CCN)C(=O)N[C@@H](Cc2cn(CC(=O)O)c3ccccc23)C(=O)N1C [Compound 11001] ({CH2CO}-Y[NMeA]NP[Dap](X1)L[Hyp]W[Dab][Trp(1-CH2COOH)][NMeNle][NMeNle]LCG-NH2; thioether N-14) | 4
7 | CCCC[C@H]1C(=O)N(C)[C@@H](CCCC)C(=O)N[C@@H](CC(C)C)C(=O)N[C@H](C(=O)NCC(N)=O)CSCC(=O)N[C@@H](Cc2ccc(O)cc2)C(=O)N(C)[C@@H](C)C(=O)N[C@@H](CC(N)=O)C(=O)N2CCC[C@H]2C(=O)N[C@@H](CNc2ccc(C#N)cn2)C(=O)N[C@@H](CC(C)C)C(=O)N2C[C@H](O)C[C@H]2C(=O)N[C@@H](Cc2c[nH]c3ccccc23)C(=O)N[C@@H](CCNc2ccc(C#N)cn2)C(=O)N[C@@H](Cc2cn(CC(=O)O)c3ccccc23)C(=O)N1C [Compound 1002] ({CH2CO}-Y[NMeA]NP[Dap](X3)L[Hyp]W[Dab](X3)[Trp(1-CH2COOH)][NMeNle][NMeNle]LCG-NH2; thioether N-14) | 4.5
8 | CCCC[C@H]1C(=O)N(C)[C@@H](CCCC)C(=O)N[C@@H](CC(C)C)C(=O)N[C@H](C(=O)NCC(N)=O)CSCC(=O)N[C@@H](Cc2ccc(O)cc2)C(=O)N(C)[C@@H](C)C(=O)N[C@@H](CC(N)=O)C(=O)N2CCC[C@H]2C(=O)N[C@@H](CNc2nccc(-c3ccccc3)n2)C(=O)N[C@@H](CC(C)C)C(=O)N2C[C@H](O)C[C@H]2C(=O)N[C@@H](Cc2c[nH]c3ccccc23)C(=O)N[C@@H](CCN)C(=O)N[C@@H](Cc2cn(CC(=O)O)c3ccccc23)C(=O)N1C [Compound 1006] ({CH2CO}-Y[NMeA]NP[Dap](X18)L[Hyp]W[Dab][Trp(1-CH2COOH)][NMeNle][NMeNle]LCG-NH2; thioether N-14) | 11
9 | CCCC[C@H]1C(=O)N(C)[C@@H](CCCC)C(=O)N[C@@H](CC(C)C)C(=O)N[C@H](C(=O)NCC(N)=O)CSCC(=O)N[C@@H](Cc2ccc(O)cc2)C(=O)N(C)[C@@H](C)C(=O)N[C@@H](CC(N)=O)C(=O)N2CCC[C@H]2C(=O)N[C@@H](CNc2nc3ccccc3s2)C(=O)N[C@@H](CC(C)C)C(=O)N2C[C@H](O)C[C@H]2C(=O)N[C@@H](Cc2c[nH]c3ccccc23)C(=O)N[C@@H](CCNc2nc3ccccc3s2)C(=O)N[C@@H](Cc2cn(CC(=O)O)c3ccccc23)C(=O)N1C [Compound 11002] ({CH2CO}-Y[NMeA]NP[Dap](X1)L[Hyp]W[Dab](X1)[Trp(1-CH2COOH)][NMeNle][NMeNle]LCG-NH2; thioether N-14) | 4.5
10 | CCCC[C@H]1C(=O)N(C)[C@@H](CCCC)C(=O)N[C@@H](CC(C)C)C(=O)N[C@H](C(=O)NCC(N)=O)CSCC(=O)N[C@@H](Cc2ccc(O)cc2)C(=O)N(C)[C@@H](C)C(=O)N[C@@H](CC(N)=O)C(=O)N2CCC[C@H]2C(=O)N[C@@H](CNc2ncnc3c2oc2ccc(Cl)cc23)C(=O)N[C@@H](CC(C)C)C(=O)N2C[C@H](O)C[C@H]2C(=O)N[C@@H](Cc2c[nH]c3ccccc23)C(=O)N[C@@H](CCNc2ncnc3c2oc2ccc(Cl)cc23)C(=O)N[C@@H](Cc2cn(CC(=O)O)c3ccccc23)C(=O)N1C [Compound 21006] ({CH2CO}-Y[NMeA]NP[Dap](X13)L[Hyp]W[Dab](X13)[Trp(1-CH2COOH)][NMeNle][NMeNle]LCG-NH2; thioether N-14) | 12
11 | CCCC[C@H]1C(=O)N(C)[C@@H](CCCC)C(=O)N[C@@H](CC(C)C)C(=O)N[C@H](C(=O)NCC(N)=O)CSCC(=O)N[C@@H](Cc2ccc(O)cc2)C(=O)N(C)[C@@H](C)C(=O)N[C@@H](CC(N)=O)C(=O)N2CCC[C@H]2C(=O)N[C@@H](CNc2ncnc(N3CCN(c4ccccc4)CC3)n2)C(=O)N[C@@H](CC(C)C)C(=O)N2C[C@H](O)C[C@H]2C(=O)N[C@@H](Cc2c[nH]c3ccccc23)C(=O)N[C@@H](CCNc2ncnc(N3CCN(c4ccccc4)CC3)n2)C(=O)N[C@@H](Cc2cn(CC(=O)O)c3ccccc23)C(=O)N1C [Compound 1009] ({CH2CO}-Y[NMeA]NP[Dap](X19)L[Hyp]W[Dab](X19)[Trp(1-CH2COOH)][NMeNle][NMeNle]LCG-NH2; thioether N-14) | 9.8
12 | CCCC[C@H]1C(=O)N(C)[C@@H](CCCC)C(=O)N[C@@H](CC(C)C)C(=O)N[C@H](C(=O)NCC(N)=O)CSCC(=O)N[C@@H](Cc2ccc(O)cc2)C(=O)N(C)[C@@H](C)C(=O)N[C@@H](CC(N)=O)C(=O)N2CCC[C@H]2C(=O)N[C@@H](CNc2ncnc3sc4ccccc4c23)C(=O)N[C@@H](CC(C)C)C(=O)N2C[C@H](O)C[C@H]2C(=O)N[C@@H](Cc2c[nH]c3ccccc23)C(=O)N[C@@H](CCNc2ncnc3sc4ccccc4c23)C(=O)N[C@@H](Cc2cn(CC(=O)O)c3ccccc23)C(=O)N1C [Compound 21015] ({CH2CO}-Y[NMeA]NP[Dap](X10)L[Hyp]W[Dab](X10)[Trp(1-CH2COOH)][NMeNle][NMeNle]LCG-NH2; thioether N-14) | 18
